Laboratory results taken from patent EP0349354A1, “Peptides PF10 to PF19 from a retro virus HIV, method for the synthesis of these peptides and their use, particularly in diagnostics” (INSTITUT PASTEUR, priority 1988, dated 1990).

System: anticorps anti-nef
Test: ELISA for detection of anti-nef antibodies on coated peptides or nef
Assay type: binding, humain
Settings: for nombre de sérums anti-nef positifs ayant réagi: ELISA, out of 31 anti-nef positive sera; for intensité de l'immunoréactivité (OD), Serum 1: Serum 1, anti-nef positive; for intensité de l'immunoréactivité (OD), Serum 1 / intensité de l'immunoréactivité (OD), Serum 2 / intensité de l'immunoréactivité (OD), Serum 3 / intensité de l'immunoréactivité (OD), Serum 4 / intensité de l'immunoréactivité (OD), Serum 5 / intensité de l'immunoréactivité (OD), Serum 6 / intensité de l'immunoréactivité (OD), Serum 7 / intensité de l'immunoréactivité (OD), Serum 8 / intensité de l'immunoréactivité (OD), Serum 9 / intensité de l'immunoréactivité (OD), Serum 10 / intensité de l'immunoréactivité (OD), Serum 11 / intensité de l'immunoréactivité (OD), Serum 12 / intensité de l'immunoréactivité (OD), Serum 13 / intensité de l'immunoréactivité (OD), Serum 14 / intensité de l'immunoréactivité (OD), Serum 15 / intensité de l'immunoréactivité (OD), Serum 16 / intensité de l'immunoréactivité (OD), Serum 17 / intensité de l'immunoréactivité (OD), Serum 18 / intensité de l'immunoréactivité (OD), Serum 19 / intensité de l'immunoréactivité (OD), Serum 20 / intensité de l'immunoréactivité (OD), Serum 21 / intensité de l'immunoréactivité (OD), Serum 22 / intensité de l'immunoréactivité (OD), Serum 23 / intensité de l'immunoréactivité (OD), Serum 24 / intensité de l'immunoréactivité (OD), Serum 25 / intensité de l'immunoréactivité (OD), Serum 26 / intensité de l'immunoréactivité (OD), Serum 27 / intensité de l'immunoréactivité (OD), Serum 28 / intensité de l'immunoréactivité (OD), Serum 29 / intensité de l'immunoréactivité (OD), Serum 30 / intensité de l'immunoréactivité (OD), Serum 31 / intensité de l'immunoréactivité (OD), Serum 32 / intensité de l'immunoréactivité (OD), Serum 33: 500 ng coated per well; for intensité de l'immunoréactivité (OD), Serum 2: Serum 2, anti-nef positive; for intensité de l'immunoréactivité (OD), Serum 3: Serum 3, anti-nef positive; for intensité de l'immunoréactivité (OD), Serum 4: Serum 4, anti-nef positive; for intensité de l'immunoréactivité (OD), Serum 5: Serum 5, anti-nef positive; for intensité de l'immunoréactivité (OD), Serum 6: Serum 6, anti-nef positive; for intensité de l'immunoréactivité (OD), Serum 7: Serum 7, anti-nef positive; for intensité de l'immunoréactivité (OD), Serum 8: Serum 8, anti-nef positive; for intensité de l'immunoréactivité (OD), Serum 9: Serum 9, anti-nef positive; for intensité de l'immunoréactivité (OD), Serum 10: Serum 10, anti-nef positive; for intensité de l'immunoréactivité (OD), Serum 11: Serum 11, anti-nef positive; for intensité de l'immunoréactivité (OD), Serum 12: Serum 12, anti-nef positive; for intensité de l'immunoréactivité (OD), Serum 13: Serum 13, anti-nef positive; for intensité de l'immunoréactivité (OD), Serum 14: Serum 14, anti-nef positive; for intensité de l'immunoréactivité (OD), Serum 15: Serum 15, anti-nef positive; for intensité de l'immunoréactivité (OD), Serum 16: Serum 16, anti-nef positive; for intensité de l'immunoréactivité (OD), Serum 17: Serum 17, anti-nef positive; for intensité de l'immunoréactivité (OD), Serum 18: Serum 18, anti-nef positive; for intensité de l'immunoréactivité (OD), Serum 19: Serum 19, anti-nef positive; for intensité de l'immunoréactivité (OD), Serum 20: Serum 20, anti-nef positive; for intensité de l'immunoréactivité (OD), Serum 21: Serum 21, anti-nef positive; for intensité de l'immunoréactivité (OD), Serum 22: Serum 22, anti-nef positive; for intensité de l'immunoréactivité (OD), Serum 23: Serum 23, anti-nef positive; for intensité de l'immunoréactivité (OD), Serum 24: Serum 24, anti-nef positive; for intensité de l'immunoréactivité (OD), Serum 25: Serum 25, anti-nef positive; for intensité de l'immunoréactivité (OD), Serum 26: Serum 26, anti-nef positive; for intensité de l'immunoréactivité (OD), Serum 27: Serum 27, anti-nef positive; for intensité de l'immunoréactivité (OD), Serum 28: Serum 28, anti-nef positive; for intensité de l'immunoréactivité (OD), Serum 29: Serum 29, anti-nef positive; for intensité de l'immunoréactivité (OD), Serum 30: Serum 30, anti-nef positive; for intensité de l'immunoréactivité (OD), Serum 31: Serum 31, anti-nef positive; for intensité de l'immunoréactivité (OD), Serum 32: Serum 32, anti-nef negative control serum; for intensité de l'immunoréactivité (OD), Serum 33: Serum 33, anti-nef negative control serum
Experimental: Des plaques de microtitration à 96 puits ont été recouvertes une nuit avec 500 ng de protéine nef bactérienne, à 37°C ou avec 500 ng de peptides synthétiques par puits dans 50µl de PBS à pH 7,4. Après saturation avec 400 µl de PBS pH 7,4, contenant 5% de caséine, durant 1 heure à 37°C et lavage avec PBS à pH 7,4, 0,5% de BSA, 0,01% tween, 50 µl de sérums à différentes dilutions ont été ajoutés pendant 2 heures à 37°C. Après le rinçage, 50µl de complexes d'IgG de souris anti-humaine-(H + L)-peroxydase 1:1000 ont été incubés pendant 1 heure à 37°C. Après un nouveau rinçage, 100µl de OPD ont été ajoutés pendant 30mn à température ambiante dans l'obscurité. La réaction de l'enzyme a été arrêtée par addition de 50µl d'acide sulfurique 4N et la densité optique des plaques a été lue à 492 nm/620 nm. Les plaques recouvertes avec la caséine ont été utilisées comme contrôle négatif.
En vue d'étudier la possibilité d'utiliser des peptides synthétiques en tant qu'antigènes pour la détection d'anticorps anti-nef chez des patients infectés par HIV, 8 peptides synthétiques couvrant la totalité de la séquence de la protéine nef de HIV-1 (figure 4) ont été utilisés dans un test ELISA avec 31 sérums anti-nef positifs et 2 sérums anti-nef négatifs utilisés comme contrôle. Les recombinants nef ont été utilisés comme contrôle positif dans les tests ELISA et la caséine a été utilisée comme contrôle négatif. Les résultats de ces expériences sont donnés dans le tableau 4 qui illustre l'essai suivant: Essai ELISA sur 31 sérums anti-nef-positifs et 2 sérums anti-nef- négatifs, soit pré-recouverts avec des peptides synthétiques (PF 11 à PF 18), soit en utilisant nef, la caséine ou un mélange de peptides PF 12 et PF 17. Les sérums ont été sélectionnés au hasard parmi des sérums anti-nef positifs et anti-nefs négatifs testés par la méthode RIA en utilisant ¹²⁵I nef. L'intensité de l'immunoradioactivité est notée "-" pour une densité optique (OD) inférieure à 0,2; "+" pour OD = 0,2 à 0,4; "++" pour OD = 0,4 à 0,8 et "+++" pour OD = 0,8 à 2,0.

| Sequence | nombre de sérums anti-nef positifs ayant réagi | intensité de l'immunoréactivité (OD), Serum 1 | intensité de l'immunoréactivité (OD), Serum 2 | intensité de l'immunoréactivité (OD), Serum 3 | intensité de l'immunoréactivité (OD), Serum 4 | intensité de l'immunoréactivité (OD), Serum 5 | intensité de l'immunoréactivité (OD), Serum 6 | intensité de l'immunoréactivité (OD), Serum 7 | intensité de l'immunoréactivité (OD), Serum 8 | intensité de l'immunoréactivité (OD), Serum 9 | intensité de l'immunoréactivité (OD), Serum 10 | intensité de l'immunoréactivité (OD), Serum 11 | intensité de l'immunoréactivité (OD), Serum 12 | intensité de l'immunoréactivité (OD), Serum 13 | intensité de l'immunoréactivité (OD), Serum 14 | intensité de l'immunoréactivité (OD), Serum 15 | intensité de l'immunoréactivité (OD), Serum 16 | intensité de l'immunoréactivité (OD), Serum 17 | intensité de l'immunoréactivité (OD), Serum 18 | intensité de l'immunoréactivité (OD), Serum 19 | also measured |
| --- | --- | --- | --- | --- | --- | --- | --- | --- | --- | --- | --- | --- | --- | --- | --- | --- | --- | --- | --- | --- | --- |
| XCVGFPVTPQVPLRPMTYKAAVDLSHFLKEKGGLEGLIHSQRRQDILZ [PF14] | 3 | - (pour une densité optique (OD) inférieure à 0,2) | - (pour une densité optique (OD) inférieure à 0,2) | +++ (pour OD = 0,8 à 2,0) | - (pour une densité optique (OD) inférieure à 0,2) | - (pour une densité optique (OD) inférieure à 0,2) | - (pour une densité optique (OD) inférieure à 0,2) | - (pour une densité optique (OD) inférieure à 0,2) | - (pour une densité optique (OD) inférieure à 0,2) | - (pour une densité optique (OD) inférieure à 0,2) | - (pour une densité optique (OD) inférieure à 0,2) | - (pour une densité optique (OD) inférieure à 0,2) | - (pour une densité optique (OD) inférieure à 0,2) | - (pour une densité optique (OD) inférieure à 0,2) | ++ (pour OD = 0,4 à 0,8) | - (pour une densité optique (OD) inférieure à 0,2) | - (pour une densité optique (OD) inférieure à 0,2) | - (pour une densité optique (OD) inférieure à 0,2) | - (pour une densité optique (OD) inférieure à 0,2) | - (pour une densité optique (OD) inférieure à 0,2) | intensité de l'immunoréactivité (OD), Serum 20: - (pour une densité optique (OD) inférieure à 0,2); intensité de l'immunoréactivité (OD), Serum 21: ++ (pour OD = 0,4 à 0,8); intensité de l'immunoréactivité (OD), Serum 22: - (pour une densité optique (OD) inférieure à 0,2); intensité de l'immunoréactivité (OD), Serum 23: - (pour une densité optique (OD) inférieure à 0,2); intensité de l'immunoréactivité (OD), Serum 24: - (pour une densité optique (OD) inférieure à 0,2); intensité de l'immunoréactivité (OD), Serum 25: - (pour une densité optique (OD) inférieure à 0,2); intensité de l'immunoréactivité (OD), Serum 26: - (pour une densité optique (OD) inférieure à 0,2); intensité de l'immunoréactivité (OD), Serum 27: - (pour une densité optique (OD) inférieure à 0,2); intensité de l'immunoréactivité (OD), Serum 28: - (pour une densité optique (OD) inférieure à 0,2); intensité de l'immunoréactivité (OD), Serum 29: - (pour une densité optique (OD) inférieure à 0,2); intensité de l'immunoréactivité (OD), Serum 30: - (pour une densité optique (OD) inférieure à 0,2); intensité de l'immunoréactivité (OD), Serum 31: - (pour une densité optique (OD) inférieure à 0,2); intensité de l'immunoréactivité (OD), Serum 32: - (pour une densité optique (OD) inférieure à 0,2); intensité de l'immunoréactivité (OD), Serum 33: - (pour une densité optique (OD) inférieure à 0,2) |
| XGGKWSKSSVVGWPTVRERMRRAEPAADGVGAASRDLEKHGAITSSNTA ATNAACAWLEAQEEEEVGZ [PF12, protéine F HIV-1, séquence 1-66] | 16 | + (pour OD = 0,2 à 0,4) | - (pour une densité optique (OD) inférieure à 0,2) | +++ (pour OD = 0,8 à 2,0) | + (pour OD = 0,2 à 0,4) | - (pour une densité optique (OD) inférieure à 0,2) | - (pour une densité optique (OD) inférieure à 0,2) | +++ (pour OD = 0,8 à 2,0) | +++ (pour OD = 0,8 à 2,0) | +++ (pour OD = 0,8 à 2,0) | - (pour une densité optique (OD) inférieure à 0,2) | ++ (pour OD = 0,4 à 0,8) | ++ (pour OD = 0,4 à 0,8) | - (pour une densité optique (OD) inférieure à 0,2) | ++ (pour OD = 0,4 à 0,8) | - (pour une densité optique (OD) inférieure à 0,2) | - (pour une densité optique (OD) inférieure à 0,2) | - (pour une densité optique (OD) inférieure à 0,2) | - (pour une densité optique (OD) inférieure à 0,2) | +++ (pour OD = 0,8 à 2,0) | intensité de l'immunoréactivité (OD), Serum 20: - (pour une densité optique (OD) inférieure à 0,2); intensité de l'immunoréactivité (OD), Serum 21: ++ (pour OD = 0,4 à 0,8); intensité de l'immunoréactivité (OD), Serum 22: - (pour une densité optique (OD) inférieure à 0,2); intensité de l'immunoréactivité (OD), Serum 23: - (pour une densité optique (OD) inférieure à 0,2); intensité de l'immunoréactivité (OD), Serum 24: - (pour une densité optique (OD) inférieure à 0,2); intensité de l'immunoréactivité (OD), Serum 25: +++ (pour OD = 0,8 à 2,0); intensité de l'immunoréactivité (OD), Serum 26: +++ (pour OD = 0,8 à 2,0); intensité de l'immunoréactivité (OD), Serum 27: - (pour une densité optique (OD) inférieure à 0,2); intensité de l'immunoréactivité (OD), Serum 28: + (pour OD = 0,2 à 0,4); intensité de l'immunoréactivité (OD), Serum 29: ++ (pour OD = 0,4 à 0,8); intensité de l'immunoréactivité (OD), Serum 30: - (pour une densité optique (OD) inférieure à 0,2); intensité de l'immunoréactivité (OD), Serum 31: +++ (pour OD = 0,8 à 2,0); intensité de l'immunoréactivité (OD), Serum 32: - (pour une densité optique (OD) inférieure à 0,2); intensité de l'immunoréactivité (OD), Serum 33: - (pour une densité optique (OD) inférieure à 0,2) |
